Laboratory results published in PubChem BioAssay AID540261 (Sanford-Burnham Center for Chemical Genomics, 2011).
Calls of active or inactive are those of the source.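 Rule for the calls: active = compounds whose average half-maximal inhibitory concentration on the enzyme falls below 100 micromolar; inactive = the rest.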

These compounds were tested against Alkaline phosphatase, tissue-nonspecific isozyme (Homo sapiens) (UniProt P05186) (assay: human TNAP enzyme inhibitors, SAR follow-up, selectivity assay for human IAP inhibitor project, biochemical, set 2, CDP-Star luminescence (AID 540261)). Conditions: purified human TNAP, 30 min.
Chain of Alkaline phosphatase, tissue-nonspecific isozyme (Homo sapiens) (P05186 whole entry, looked up): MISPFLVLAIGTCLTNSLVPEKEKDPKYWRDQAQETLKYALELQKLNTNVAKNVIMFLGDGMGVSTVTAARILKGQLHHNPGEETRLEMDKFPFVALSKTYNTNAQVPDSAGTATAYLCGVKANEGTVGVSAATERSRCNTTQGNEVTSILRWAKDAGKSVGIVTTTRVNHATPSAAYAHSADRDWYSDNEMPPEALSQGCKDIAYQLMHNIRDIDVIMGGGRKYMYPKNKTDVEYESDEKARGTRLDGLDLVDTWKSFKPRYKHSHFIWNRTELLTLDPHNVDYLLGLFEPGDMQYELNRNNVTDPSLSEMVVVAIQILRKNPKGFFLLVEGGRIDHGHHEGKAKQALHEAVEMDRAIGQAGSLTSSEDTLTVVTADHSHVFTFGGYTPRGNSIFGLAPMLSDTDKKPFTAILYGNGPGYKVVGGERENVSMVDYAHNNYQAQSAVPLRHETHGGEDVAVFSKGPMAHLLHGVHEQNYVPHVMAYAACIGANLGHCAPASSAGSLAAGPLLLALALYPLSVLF

IC50, inactive:
O=C(CNS(=O)(=O)c1ccc2[nH]c(=O)oc2c1)Nc1ccc2c(c1)OCO2 > 100 µM
N#Cc1ccc(CNC(=O)CCNS(=O)(=O)c2ccc3[nH]c(=O)oc3c2)cc1 > 100 µM
Cc1ccc(C)c(NC(=O)CCNS(=O)(=O)c2ccc3[nH]c(=O)oc3c2)c1 > 100 µM
O=C(CNS(=O)(=O)c1ccc2[nH]c(=O)oc2c1)NCc1ccc2c(c1)OCO2 > 100 µM
COc1ccc(NC(=O)CNS(=O)(=O)c2ccc3[nH]c(=O)oc3c2)cc1OC > 100 µM
